This is an account of results in ChEMBL document CHEMBL1146704, “(2-amino-phenyl)-amides of omega-substituted alkanoic acids as new histone deacetylase inhibitors” (Bioorg Med Chem Lett, 2004).

Active and inactive are the calls of the source. The calls are words filed in the database; no cut-off is given here.

One experiment has as its target Histone deacetylase. Briefly: Effect on induced hyperacetylation of histones in whole cells. In kind it is functional, cell-based, Homo sapiens.
The next experiment concerns the target Histone deacetylase 1 (Homo sapiens, UniProt Q13547).
The test system of another experiment is HCT-116. The experiment in a line: In vitro antiproliferative activity against human cancer cell line HCT116 using MTT assay. In kind it is functional, cell-based. A general note: Formazan colour is commonly taken as a measure of viable cells.
The next experiment deals with SW48. Briefly: In vivo inhibitory activity against human SW48 colon tumor; Active.
A further experiment concerns DU-145. Briefly: In vivo inhibitory activity against human DU145 prostate tumor; Active. The note with it: Prostate gland.
A further experiment deals with COLO 205. Briefly: In vivo inhibitory activity against human COLO 205 tumor; Active.
Another experiment deals with PANC-1. The experiment in a line: […] inhibitory activity against human PANC-1 pancreatic tumor; Active. In kind it is functional.
A further experiment has as its system A549. The experiment in a line: In vivo inhibitory activity against human A549 non-small cell lung tumor; Active.
A short description of experiment [1]: Compound was tested for tumor growth inhibition relative to control. The format is functional.

Chain of Histone deacetylase 1 (Q13547 whole entry): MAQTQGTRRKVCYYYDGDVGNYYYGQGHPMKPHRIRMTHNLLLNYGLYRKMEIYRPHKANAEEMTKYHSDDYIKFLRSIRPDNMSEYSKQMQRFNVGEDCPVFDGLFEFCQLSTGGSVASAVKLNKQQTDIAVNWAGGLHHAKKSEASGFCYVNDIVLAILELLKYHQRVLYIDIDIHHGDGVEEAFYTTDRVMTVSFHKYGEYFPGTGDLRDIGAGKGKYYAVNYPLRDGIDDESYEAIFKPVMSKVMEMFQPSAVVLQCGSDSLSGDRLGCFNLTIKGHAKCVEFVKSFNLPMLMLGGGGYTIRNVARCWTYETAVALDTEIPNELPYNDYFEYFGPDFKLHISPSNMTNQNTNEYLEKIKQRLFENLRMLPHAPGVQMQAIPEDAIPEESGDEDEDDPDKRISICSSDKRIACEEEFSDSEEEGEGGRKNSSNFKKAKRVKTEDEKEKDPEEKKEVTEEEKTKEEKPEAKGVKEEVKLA
Description for Histone deacetylase 1: Ability to inhibit recombinant human histone deacetylase 1 (HDAC-1).

A word on the EC50: it is the concentration at which the effect is half-maximal. Read a high EC50 as lower potency in that assay. In general, IC50 refers to the concentration that gives 50% inhibition. At Histone deacetylase, `Nc1ccccc1NC(=O)CCCCCN1C(=O)c2ccccc2C1=O` yielded an EC50 of 5 µM. Also, the IC50 was 2 µM against Histone deacetylase 1 and 24 µM with HCT-116.
Compound `Nc1ccccc1NC(=O)CCCCCN1C(=O)c2cccc3cccc(c23)C1=O` showed an EC50 on Histone deacetylase of 3 µM. Also, the result in the experiment on SW48, in the experiment with DU-145, in the experiment with COLO 205, with PANC-1 and in the experiment on A549 was Active. In addition, the IC50 on Histone deacetylase 1 is 3 µM; in the experiment on HCT-116, 2 µM.
What is called TGI is the reduction of tumour growth relative to the control group. Lower therefore signals little slowing of growth. With `Nc1ccccc1NC(=O)CCCCCN1C(=O)c2cccc3cc(O)cc(c23)C1=O`, the result in the experiment on SW48, in the experiment with DU-145, in the experiment on COLO 205, with PANC-1 and with A549 was Active. This compound returned a tumour growth inhibition (TGI) in experiment [1] of 28%. In the experiment with HCT-116, this compound displayed an IC50 of 0.9 µM.
Consider `Nc1ccccc1NC(=O)CCCCCCC(=O)c1ccc(-c2ccccc2)nc1`, for which, on Histone deacetylase, the 50% effective concentration (EC50) is 5 µM. Further, the result with SW48, with DU-145, in the experiment with COLO 205, with PANC-1 and with A549 was Active. Besides, the results for the IC50 at Histone deacetylase 1 and with HCT-116 were 3 µM and 5 µM, respectively.
The compound `COc1ccc(C(=O)CCCCCCC(=O)Nc2ccccc2N)cc1` displayed an EC50 at Histone deacetylase of 5 µM. Besides, the IC50 is 5 µM against Histone deacetylase 1 and 21 µM in the experiment with HCT-116.
On Histone deacetylase, `Nc1ccccc1NC(=O)CCCCCn1nnc2ccccc2c1=O` registered an EC50 of 10 µM. In addition, the IC50 against Histone deacetylase 1 came out at 8 µM; with HCT-116, 10 µM.
The compound `Nc1ccccc1NC(=O)CCCCCN1C(=O)c2cc(O)c(CN3CCCCC3)cc2C1=O` yielded an IC50 with HCT-116 of 31 µM.
On to `Nc1ccccc1NC(=O)CCCCCN1C(=O)c2cccnc2C1=O`, for which, on Histone deacetylase, the EC50 was over 25 µM. In the experiment on HCT-116, this compound yielded an IC50 of over 47 µM.
Taken in the same sequence, the figures for `Nc1ccccc1NC(=O)CCCCCN1C(=O)c2ccc(O)cc2C1=O` were 10 µM and 11 µM.
Consider `Nc1ccccc1NC(=O)CCCCCCC(=O)c1ccc(Br)cc1`, for which, at Histone deacetylase, the EC50 was found to be 15 µM. Further, the IC50 against Histone deacetylase 1 was 6 µM; in the experiment with HCT-116 it was 20 µM.
Taken in the same sequence, the figures for `Nc1ccccc1NC(=O)CCCCCCC(=O)c1cccc(-c2ccccc2)c1` were 25 µM, 1 µM and 12 µM.
The like results for `Nc1ccccc1NC(=O)CCCCCCC(=O)c1ccc2ccccc2c1` were, in that order, 25 µM, 2 µM and 9 µM.
Turning to `Cc1ccc2c(c1)C(=O)N(CCCCCC(=O)Nc1ccccc1N)C2=O`, the EC50 at Histone deacetylase is 3 µM. In the experiment with HCT-116, this compound displayed an IC50 of 6 µM.
In the case of `Nc1ccccc1NC(=O)CCCCCCC(=O)c1ccc(-c2ccccc2)cc1`, the EC50 on Histone deacetylase was determined as 10 µM. Also, the result in the experiment on SW48, with DU-145, in the experiment with COLO 205, in the experiment on PANC-1 and with A549 was Active. Further, the IC50 against Histone deacetylase 1 worked out at 2 µM; with HCT-116 it was 7 µM. This compound registered a TGI in experiment [1] of 53%.
On to `Cn1c(=O)n(CCCCCC(=O)Nc2ccccc2N)c(=O)c2ccccc21`, for which the figures for the IC50 on Histone deacetylase 1 and with HCT-116 were 4 µM and 5 µM, respectively.
At Histone deacetylase, `COc1ccc(-c2ccc(C(=O)CCCCCCC(=O)Nc3ccccc3N)cc2)cc1OC` yielded an EC50 of 3 µM. For the same compound, the IC50 at Histone deacetylase 1 and in the experiment with HCT-116 was 4 µM each time.
In the experiment with HCT-116, `Nc1ccccc1NC(=O)c1ccc(CNC(=O)OCc2cccnc2)cc1` [ENTINOSTAT] had a half-inhibitory concentration (IC50) of 0.5 µM.
As for `Nc1ccccc1NC(=O)CCCCCN1C(=O)c2cccc3c(CN4CCCCC4)c(O)cc(c23)C1=O`, the EC50 at Histone deacetylase was 1 µM. Moreover, the IC50 in the experiment on HCT-116 worked out at 1 µM.
`Nc1ccccc1NC(=O)CCCCCCC(=O)c1ccccc1` displayed an EC50 on Histone deacetylase of 25 µM. Besides, the half-inhibitory concentration (IC50) at Histone deacetylase 1 is 9 µM; in the experiment on HCT-116, over 25 µM.
In the case of `Nc1ccccc1NC(=O)CCCCCn1cnc2ccccc2c1=O`, the IC50 in the experiment with HCT-116 came to 10 µM.
Regarding `Nc1ccccc1NC(=O)CCCCCCC(=O)c1ccc(-c2cccnc2)cc1`, the EC50 at Histone deacetylase came out at 20 µM. Also, the IC50 was 10 µM against Histone deacetylase 1 and 19 µM in the experiment on HCT-116.
`Nc1ccccc1NC(=O)CCCCCN1C(=O)c2cccc3c(CN4CCOCC4)c(O)cc(c23)C1=O` came in with a half-maximal effective concentration (EC50) at Histone deacetylase of 2 µM. Further, the result with SW48, in the experiment with DU-145, with COLO 205, with PANC-1 and in the experiment with A549 was Active. Besides, the IC50 at Histone deacetylase 1 came out at 0.5 µM; in the experiment on HCT-116 it was 1 µM.
`Nc1ccccc1NC(=O)CCCCCN1C(=O)c2cccc3c(Br)ccc(c23)C1=O`: at Histone deacetylase, the EC50 amounted to 10 µM. The compound further yielded an IC50 with HCT-116 of 6 µM.
Turning to `Nc1ccccc1NC(=O)CCCCCN1C(=O)c2cc(O)c(CN3CCOCC3)cc2C1=O`, the IC50 was determined as 4 µM at Histone deacetylase 1 and 12 µM in the experiment with HCT-116.
As to `Nc1ccccc1NC(=O)CCCCCn1c(=O)[nH]c2ccccc2c1=O`, the EC50 on Histone deacetylase worked out at 10 µM. The concentration for half-maximal inhibition (IC50) against Histone deacetylase 1 came to 4 µM; in the experiment on HCT-116, 5 µM.
Take `Nc1ccccc1NC(=O)CCCCCN1Cc2ccccc2C1=O`: the EC50 at Histone deacetylase came to 99 µM. This compound also returned an IC50 with HCT-116 of 15 µM.
